Legend:
IDO1 [1] = target: T1, IDO1 (Homo sapiens (Human), UniProt P14902); assay: IDO1 Enzyme Assay; assay type: biochemical; conditions: HIS-tagged recombinant IDO1, fluorescence readout
Experimental: (§1) Compounds to be tested were serially diluted in ten 3-fold steps in DMSO starting from 10 mM DMSO stocks. Compound dilutions or DMSO alone were then dispensed from the dilution plate into a Greiner black 384-well assay plate (catalog #781086) using an Echo 555 acoustic liquid handler (Labcyte).
HIS-tagged IDO1 protein was recombinantly expressed in Escherichia coli using ZYP5052 autoinduction media supplemented with 500 μM delta aminolevulinic acid for 48 h at 16° C. IDO1 protein was purified using Ni^2+-affinity resin and size exclusion chromatography. Purified protein was then diluted in assay buffer (50 mM Tris pH 7.0, 1% glycerol, 20 μM methylene blue, 0.05% Tween-20, 20 mM sodium ascorbate, 100 units/mL catalase to obtain a final IDO1 concentration of 40 nM. IDO1 solution […] or buffer alone ([…]) were dispensed to wells of the assay plate using a BioRAPTR liquid dispenser (Beckman Coulter). Assay plates containing compound and IDO1 enzyme were incubated at RT for 30 min. Afterwards, 10 μL of 400 μM tryptophan in assay buffer were added to each well of the assay plate using a BioRAPTR liquid dispenser. Plates were incubated at RT for 60 min and reactions were quenched by addition of 10 μL of 0.5 M methyl isonipecotate in dimethyl sulfoxide. Plates were sealed and incubated at 37° C. for 4 h or 50° C. for 2 h. The plates are allowed to cool and then centrifuged for 1 min at 1000×g. The resulting fluoresence was measured in an Envision plate reader (Perkin Elmer) with a 400/25 nm excitation filter and an 510/20 nm emission filter.
Potencies were calculated by linear least squares fit to the four parameter logistic IC50 equation.
Target sequence in this assay (P14902 whole entry, species assumed): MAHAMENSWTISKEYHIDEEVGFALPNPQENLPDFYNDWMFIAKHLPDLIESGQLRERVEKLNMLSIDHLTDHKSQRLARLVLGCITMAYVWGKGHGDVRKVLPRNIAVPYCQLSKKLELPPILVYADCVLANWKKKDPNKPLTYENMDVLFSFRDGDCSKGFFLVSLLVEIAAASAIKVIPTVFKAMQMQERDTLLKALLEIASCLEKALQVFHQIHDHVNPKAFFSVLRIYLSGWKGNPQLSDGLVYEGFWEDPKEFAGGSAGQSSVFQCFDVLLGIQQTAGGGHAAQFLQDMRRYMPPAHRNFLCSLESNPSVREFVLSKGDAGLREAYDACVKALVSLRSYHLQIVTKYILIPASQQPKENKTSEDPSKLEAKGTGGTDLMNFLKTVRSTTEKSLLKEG

IDO1 [2] = target: T1, IDO1; assay: IDO1 Cellular Assay in Hela Cells Stimulated with IFNγ; assay type: cell-based; conditions: about 48 hours, read-out: IDO1 HELA Cell Assay, IC50
Experimental: Hela cells were cultured in complete Hela culture medium (90% EMEM, 10% heat-inactivated fetal bovine serum) and expanded to about 1×10^9 cells. The cells were then collected and frozen down at 10×10^6 cells/vial in 1 mL frozen medium (90% complete Hela culture medium, 10% DMSO)
as §1, with “stocks in Echo low volume plate(s).” for “stocks.”, “plate(s)” for “plate”, “into” for “into a”, “#781086, 50 nL/well)” for “#781086)”, “550” for “555”
Target sequence in this assay (P14902 whole entry): as the sequence (P14902 whole entry, species assumed) above
Frozen Hela cells were thawed and transferred into Hela assay medium (99% complete Hela culture medium, 1% Pen/Strep) with 20 mL medium/vial of cells. The cells were spun down at 250 g in a table top centrifuge for 5 min and suspended in same volume of Hela assay medium. The cells were then counted and adjusted to a density of 2×10^5 cells/ml in Hela assay medium. Sterile L-tryptophan were added to the cells with final concentration of 300 uM L-tryptophan. A small aliquot (2 mL/plate) of Hela cells were set aside and were not treated with IFNγ, to serve as the Max-E control. The rest of Hela cells were added with sterile IFNγ (Cat #285-IF, R & D systems) with a final concentration of 100 ng/mL.
Hela cells with and without IFNγ were dispensed to the respective wells of 384-well assay plates containing the compounds. The plates were incubated for about 48 hours at a 37° C., 5% CO2 incubator. Afterwards, 12 μL of 0.5 M methyl isonipecotate in dimethyl sulfoxide were added into each well and the plates were sealed and incubated at 37° C. without CO2 overnight. The plates were centrifuged for 1 min at 200×g. The resulting fluorescence was measured in a Spectramax plate reader (Molecular Devices) with a 400 nm excitation filter and a 510 nm emission filter.
The fluorescence intensity of each well was corrected for the background observed in wells with non-IFNγ-treated cells and was expressed as a fraction of the intensity observed in wells of IFNγ-treated cells and DMSO only. Potencies were calculated by linear least squares fit to the four parameter logistic IC50 equation.

## CS(=N)(=O)NCC(O)CNc1nonc1/C(=N\O)N[C@H]1Cc2ccc(F)cc21 (single isomer, unassigned) [Example 55]
IDO1 [1]
  IC50: 92.9 nM
IDO1 [2]
  IC50: 117 nM

## CS(=O)(CCNc1nonc1/C(=N\O)N[C@H]1Cc2ccc(F)cc21)=NCCO (single isomer, unassigned) [Example 57]
IDO1 [1]
  IC50: 70.6 nM
IDO1 [2]
  IC50: 109 nM

## CS(=N)(=O)N1CC2(CC(Nc3nonc3/C(=N\O)N[C@@H]3Cc4ccc(F)cc43)C2)C1 (single isomer, unassigned) [Example 77]
IDO1 [1]
  IC50: 34.1 nM
IDO1 [2]
  IC50: 22.7 nM

## CS(=N)(=O)CCOCCNc1nonc1/C(=N/O)N[C@H]1Cc2ccc(F)cc21 (single isomer, unassigned) [Example 47]
IDO1 [1]
  IC50: 154 nM
IDO1 [2]
  IC50: 196 nM

## C[S@](=N)(=O)C1CC(Nc2nonc2/C(=N\O)N[C@@H]2Cc3ccc(F)cc32)C1 (single isomer, unassigned) [Example 73]
IDO1 [1]
  IC50: 63.9 nM
IDO1 [2]
  IC50: 85.4 nM

## CS(=N)(=O)N1CCC(Nc2nonc2/C(=N/O)N[C@H]2Cc3ccc(F)cc32)CC1 (single isomer, unassigned) [Example 18]
IDO1 [1]
  IC50: 68.3 nM
IDO1 [2]
  IC50: 69.9 nM

## CS(=N)(=O)CCNC(=O)CNc1nonc1/C(=N/O)N[C@H]1Cc2ccc(F)cc21 (single isomer, unassigned) [Example 14]
IDO1 [1]
  IC50: 63.8 nM
IDO1 [2]
  IC50: 103 nM

## N=S(N)(=O)CCCNc1nonc1/C(=N\O)NC1Cc2ccc(F)cc21 (stereo in doubt) [Example 65, 4-{[3-(S-aminosulfonimidoyl)propyl]amino}-N-[(7S)-4-fluorobicyclo[4.2.0]octa-1,3,5-trien-7-yl]-N′-hydroxy-1,2,5-oxadiazole-3-carboximidamide]
IDO1 [1]
  IC50: 48.2 nM
IDO1 [2]
  IC50: 25.7 nM

## CS(=N)(=O)N1CCC(Nc2nonc2/C(=N/O)N[C@H]2Cc3ccc(F)cc32)C1 (single isomer, unassigned) [Example 43]
IDO1 [1]
  IC50: 169 nM
IDO1 [2]
  IC50: 157 nM

## CS(=N)(=O)CC(O)CNc1nonc1/C(=N/O)N[C@H]1Cc2ccc(F)cc21 (single isomer, unassigned) [Example 27]
IDO1 [1]
  IC50: 43.3 nM
IDO1 [2]
  IC50: 129 nM

## CS(=N)(=O)CCNC(=O)CNc1nonc1/C(=N/O)N[C@H]1Cc2ccc(F)cc21 (stereo partly drawn) [Example 12, 2-((4-(N-((S)-4-fluorobicyclo[4.2.0]octa-1(6),2,4-trien-7-yl)-N′-hydroxycarbamimidoyl)-1,2,5-oxadiazol-3-yl)amino)-N-(2-(S-methylsulfonimidoyl)ethyl)acetamide]
IDO1 [1]
  IC50: 49.3 nM
IDO1 [2]
  IC50: 114 nM

## CS(=N)(=O)CCCCOc1nonc1/C(=N/O)N[C@H]1Cc2ccc(F)cc21 (single isomer, unassigned) [Example 33]
IDO1 [1]
  IC50: 184 nM
IDO1 [2]
  IC50: 288 nM

## CN=S(C)(=O)NCCNc1nonc1/C(=N\O)N[C@H]1Cc2ccc(F)cc21 (single isomer, unassigned) [Example 67]
IDO1 [1]
  IC50: 63.7 nM
IDO1 [2]
  IC50: 140 nM

## CS(=N)(=O)CCCCOc1nonc1/C(=N/O)N[C@H]1Cc2ccc(F)cc21 (single isomer, unassigned) [Example 32]
IDO1 [1]
  IC50: 178 nM
IDO1 [2]
  IC50: 241 nM

## N=S(=O)(CCNc1nonc1/C(=N\O)N[C@@H]1Cc2ccc(F)cc21)C1CC1 (single isomer, unassigned) [Example 69]
IDO1 [1]
  IC50: 64.6 nM
IDO1 [2]
  IC50: 48.5 nM

## CC(O)CS(=N)(=O)CCNc1nonc1/C(=N\O)N[C@@H]1Cc2ccc(F)cc21 (single isomer, unassigned) [Example 84]
IDO1 [1]
  IC50: 56.8 nM
IDO1 [2]
  IC50: 55.2 nM

## CS(=N)(=O)N1CCC(Nc2nonc2/C(=N/O)N[C@H]2Cc3ccc(F)cc32)C1 (single isomer, unassigned) [Example 45]
IDO1 [1]
  IC50: 107 nM
IDO1 [2]
  IC50: 85 nM

## CS(=N)(=O)CCCNc1nonc1/C(=N/O)N[C@H]1Cc2ccc(F)cc21 (single isomer, unassigned) [Example 24]
IDO1 [1]
  IC50: 35.4 nM
IDO1 [2]
  IC50: 39.9 nM

## CS(=N)(=O)CCCNc1nonc1/C(=N/O)N[C@H]1Cc2ccc(F)cc21 (single isomer, unassigned) [Example 25]
IDO1 [1]
  IC50: 31.2 nM
IDO1 [2]
  IC50: 42.7 nM

## CS(=N)(=O)CCC(O)CNc1nonc1/C(=N\O)N[C@@H]1Cc2ccc(F)cc21 (single isomer, unassigned) [Example 78]
IDO1 [1]
  IC50: 57.8 nM
IDO1 [2]
  IC50: 74.8 nM

## CS(=N)(=O)NCCOc1nonc1/C(=N/O)N[C@H]1Cc2ccc(F)cc21 (single isomer, unassigned) [Example 52]
IDO1 [1]
  IC50: 175 nM
IDO1 [2]
  IC50: 148 nM

## CS(=N)(=O)CCCCNc1nonc1/C(=N/O)N[C@H]1Cc2ccc(F)cc21 (single isomer, unassigned) [Example 39]
IDO1 [1]
  IC50: 50.8 nM
IDO1 [2]
  IC50: 35.7 nM

## CN=S(C)(=O)CCNC(=O)CNc1nonc1/C(=N/O)N[C@H]1Cc2ccc(F)cc21 (stereo partly drawn) [Example 40, N-[2-(N,S-dimethylsulfonimidoyl)ethyl]-N~2~-(4-{N-[(7S)-4-fluorobicyclo[4.2.0]octa-1,3,5-trien-7-yl]-N′-hydroxycarbamimidoyl}-1,2,5-oxadiazol-3-yl)glycinamide]
IDO1 [1]
  IC50: 237 nM
IDO1 [2]
  IC50: 201 nM

## CS(=N)(=O)C1CC2(CC(Nc3nonc3/C(=N\O)N[C@@H]3Cc4ccc(F)cc43)C2)C1 (single isomer, unassigned) [Example 74]
IDO1 [1]
  IC50: 73.7 nM
IDO1 [2]
  IC50: 32.2 nM

## N=S1(=O)CCC1CNc1nonc1/C(=N/O)N[C@H]1Cc2ccc(F)cc21 (single isomer, unassigned) [Example 23]
IDO1 [1]
  IC50: 143 nM
IDO1 [2]
  IC50: 99.4 nM

## CS(=N)(=O)NCCNc1nonc1/C(=N/O)N[C@H]1Cc2ccc(F)cc21 (stereo partly drawn) [Example 11, N—((S)-4-fluorobicyclo[4.2.0]octa-1(6),2,4-trien-7-yl)-N′-hydroxy-4-((2-(methylsulfonoamidimidamido)ethyl)amino)-1,2,5-oxadiazole-3-carboximidamide]
IDO1 [1]
  IC50: 38.7 nM
IDO1 [2]
  IC50: 27.4 nM

## N=S(=O)(CCNc1nonc1/C(=N\O)N[C@@H]1Cc2ccc(F)cc21)C1CC1 (single isomer, unassigned) [Example 68]
IDO1 [1]
  IC50: 59.1 nM
IDO1 [2]
  IC50: 44.6 nM

## CS(=N)(=O)N1CCO[C@@H](CNc2nonc2/C(=N\O)N[C@H]2Cc3ccc(F)cc32)C1 (single isomer, unassigned) [Example 60]
IDO1 [1]
  IC50: 234 nM
IDO1 [2]
  IC50: 329 nM

## C[S@](=N)(=O)C1CC(Nc2nonc2/C(=N\O)N[C@@H]2Cc3ccc(F)cc32)C1 (single isomer, unassigned) [Example 72]
IDO1 [1]
  IC50: 49.5 nM
IDO1 [2]
  IC50: 63.5 nM

## CN=S(C)(=O)CCNc1nonc1/C(=N/O)N[C@H]1Cc2ccc(F)cc21 (single isomer, unassigned) [Example 35]
IDO1 [1]
  IC50: 81.6 nM
IDO1 [2]
  IC50: 43.2 nM

## CS(=N)(=O)CC12CC(Nc3nonc3/C(=N\O)N[C@@H]3Cc4ccc(F)cc43)(C1)C2 (single isomer, unassigned) [Example 83]
IDO1 [1]
  IC50: 81.5 nM
IDO1 [2]
  IC50: 83.9 nM

## CS(=N)(=O)N1CC(Oc2nonc2/C(=N/O)N[C@H]2Cc3ccc(F)cc32)C1 (single isomer, unassigned) [Example 42]
IDO1 [1]
  IC50: 56.8 nM
IDO1 [2]
  IC50: 43.6 nM

## CN(CCNc1nonc1/C(=N\O)N[C@H]1Cc2ccc(F)cc21)S(C)(=N)=O (stereo partly drawn) [Example 54, N-[(7S)-4-fluorobicyclo[4.2.0]octa-1,3,5-trien-7-yl]-N′-hydroxy-4-({2-[methyl(S-methylsulfonimidoyl)amino]ethyl}amino)-1,2,5-oxadiazole-3-carboximidamide]
IDO1 [1]
  IC50: 108 nM
IDO1 [2]
  IC50: 102 nM

## CS(=N)(=O)CC(O)CNc1nonc1/C(=N/O)N[C@H]1Cc2ccc(F)cc21 (single isomer, unassigned) [Example 26]
IDO1 [1]
  IC50: 53.7 nM
IDO1 [2]
  IC50: 99.9 nM

From patent US10927086B2, “Substituted sulfoximine compounds as indoleamine 2,3-dioxygenase (IDO) inhibitors” (Merck Sharp & Dohme Corp., priority 2017, dated 2021)
